Measurements from patent US6423347B1, “Method and product using sturgeon notochord for alleviating the symptoms of arthritis” (Abbott Laboratories, priority 1997, dated 2002).
Read-outs that look alike come from different tables or passages of the source.

Legend:
[1] = system: collagen-induced arthritis (CIA); assay: Dose response of sturgeon notochord in protecting mice from CIA; format: in vivo, DBA/1 Lac J strain mice; settings: 0.1 mg/kg p.o.
Method: To evaluate the dose response of sturgeon notochord in protecting mice from CIA, this experiment was conducted in a manner similar to Examples II and III. The mice were DBA/1 Lac J strain supplied by Jackson Laboratories of Bar Harbor, Maine. All mice were female and about 6-8 weeks of age. Eight groups of 10-15 mice per group were acclimated to their surroundings for 7 days. A standard mouse chow and water were provided for ad libitum consumption to all animals.
On Days[…] −10, −7, −5 and −2 prior to immunization, mice were sensitized by sturgeon notochord. A group fed only vehicle was used as the negative control and a group fed with an effective dose of dexamethasone (0.1 mg/kg per os) was used as the positive control. Sturgeon notochord was obtained from farm raised sturgeon and pulverized in liquid nitrogen. The dose level of sturgeon notochord was equilibrated to 1, 3, 10, 30, 100 or 300 μg of collagen per dose based on the protein and collagen content. Sturgeon notochord was dissolved/suspended in 0.01 M acetic acid and 0.3 ml was administered to each mouse with a ball tipped feeding needle.
On Day 0, the mice were immunized at the base of the tail with 100 μg of bovine CII which was emulsified in CFA. On Day 21, the mice were injected subcutaneously with 50 μg of LPS.
Mice were inspected daily for the onset of CIA, characterized by erythema and edema. Limbs were clinically evaluated and graded on a scale of 0 to 6 as described in Example III.
The inventors continued to observe four selected groups (vehicle control group, sturgeon notochord 0.105 mg/dose group, sturgeon notochord 1.053 mg/dose group, and dexamethasone group) until Day 79. Severity scores plotted against days post-sensitization are found in FIG. 1.

[2] = system: chronic CIA induced by using human CII; assay: Chronic CIA induced by human type II collagen; format: in vivo, Female DBA/1 Lac J strain mice; settings: 0.1 mg dexamethasone/kg BW on Days 21 and 35
Method: Effect of Sturgeon Notochord in a Chronic Arthritis Induced by Human Type II Collagen This experiment was conducted to investigate the effectiveness of sturgeon notochord in protecting mice from chronic CIA induced by using human CII (unlike other examples in this application which used bovine CII). Female DBA/1 Lac J strain mice, approximately 6-8 weeks of age, were obtained from Jackson Laboratories of Bar Harbor, Maine. Animals were acclimated to their surroundings for 7 days. A standard mouse chow (Teklad diet) and water were provided for ad libitum consumption.
The chronic CIA induction was achieved by immunizing each mice on Day 0 and Day 21 at the base of the tail with […] of human CII which was emulsified in CFA. Animals in the vehicle control group and Dexamethasone control group received 0.01 M acetic acid on Days −10, −7, −5, and −2 and 0.1 mg dexamethasone/kg BW on Days 21 and 35, respectively. The mice receiving sturgeon notochord were divided into three groups and they were dosed with 100 mg collagen per dose dissolved/suspended in 0.01 M acetic acid and 0.3 ml was administered. Group 1 received sturgeon notochord on Days −10, −7, −5, and −2; Group 2, on Days 7, 10, 12, and 14; Group 3, Days 28, 31, 33, and 35.
Mice were inspected daily for the onset of CIA, characterized by erythema and edema. Limbs were clinically evaluated and graded on a scale of 0 to 6 (0, absence of arthritis; 0.5, one or more digits swollen or only the paw swollen; 1, entire paw swollen; 2, entire paw severely swollen; 3, mild deformity after inflammation subsides; 4, severe deformity; 5, mild ankylosis with partial loss of joint function in the paw; 6, severe ankylosis with total loss of joint function in the paw). […]

[3] = system: collagen-induced arthritis (CIA); format: in vivo
Method: These Examples were conducted to investigate the effectiveness of sturgeon notochord in protecting mice from collagen-induced arthritis (CIA). Female DBA/1 Lac J strain mice, approximately 6-8 weeks of age, were obtained from Jackson Laboratories of Bar Harbor, Maine. Three groups of 20 mice per group were acclimated to their surroundings for 7 days. A standard mouse chow (Purina Certified Mouse Chow #5015; 11% by wt. fat; collagen-free) and water were provided for ad libitum consumption to all animals.
Bovine serum albumin (a protein derived from non-connective tissue) and cod skin gelatin (a protein derived from another connective tissue containing Type I collagen of a fish) served as negative controls. Sturgeon notochord was obtained from farm raised sturgeon and pulverized in liquid nitrogen. The level of each test composition was equilibrated to a 300 μg protein dose based on protein (including collagen) content. Test articles were dissolved/suspended in 0.01 M acetic acid and 0.3 ml was administered per dose to each mouse with a ball tipped feeding needle.
On Day 0, the mice were immunized at the base of the tail with 100 μg of bovine CII which was emulsified in Complete Freund's Adjuvant (CFA). On Day 7, a second booster dose of 100 μg bovine CII in CFA was administered by the same route. On Day 14, the mice were injected subcutaneously with 100 μg of lipopolysaccharide (LPS). This protocol represents a mild induction of CIA.
Mice were inspected daily for the onset of CIA, characterized by erythema and edema. Limbs were clinically evaluated and graded on a scale of 0 to 3 (0, absence of arthritis; 1, mild swelling and erythema; 2, swelling and erythema of both tarsus and ankle; 3, ankylosis and bone deformity). […] All mice were euthanized by CO2 on Day 50.

Compound: C[C@@H]1C[C@H]2[C@@H]3CCC4=CC(=O)C=C[C@]4(C)[C@@]3(F)[C@@H](O)C[C@]2(C)[C@@]1(O)C(=O)CO [Dexamethasone]
- % of incidence ([1]; D26): 40%
- severity score ([1]; D26): 1.0 ± 0.4
- % of incidence ([1]; D28): 50%
- severity score ([1]; D28): 1.1 ± 0.4
- % of incidence ([1]; D35): 50%
- severity score ([1]; D35): 1.1 ± 0.4
- % incidence ([2]; D28): 33%
- severity score ([2]; D28): 0.25
- % incidence ([2]; D35): 67%
- severity score ([2]; D35): 0.42
- % incidence ([2]; D42): 100%
- severity score ([2]; D42): 1.75
- % incidence ([2]; D49): 100%
- severity score ([2]; D49): 3.58

Compound: bovine serum albumin [BSA]
- median day of onset ([3]; 300 μg protein dose oral on Days −10, −7, −5 and −2): 17 days
- # animals with arthritis ([3]; Day 20, 300 μg protein dose oral on Days −10, −7, −5 and −2): 12
- # animals with arthritis ([3]; Day 28, 300 μg protein dose oral on Days −10, −7, −5 and −2): 12
- # animals with arthritis ([3]; Day 40, 300 μg protein dose oral on Days −10, −7, −5 and −2): 12
- # animals with arthritis ([3]; Day 50, 300 μg protein dose oral on Days −10, −7, −5 and −2): 14
- % onset ([3]; calculated based on the Day 50 data, 300 μg protein dose): 78%
- mean severity score ([3]; scale of 0 to 3, based on Day 20, 29, 34, 43 and 50 data, 300 μg protein dose): 2.05
